The values below come from US10159746B2, “Cyclodextrin complexation methods for formulating peptide proteasome inhibitors” (Onyx Therapeutics, Inc., priority 2012, dated 2018).

Converted amounts (≈) assume the structure as drawn.

Holding throughout (assay type): physicochemical
Data set [1] in a line: Slurry-based complexation/solubilization of CFZ-API in SBECD with citric acid (Example 1). The following applies: SBECD/WFI/citric acid slurry, 2-8° C., mixed a further 24 hours. Here is the method: In a 525 L stainless steel jacketed cooled tank controlled to 2° C.-8° C., a suspension of 2.0 kg carfilzomib-API (CFZ-API), 246 kg water for injection (WFI), and 100 kg sulfobutylether beta-cyclodextrin (SBECD) was prepared. Specifically, in the 525 L stainless steel jacketed cooled tank controlled to 2° C.-8° C., 100 kg SBECD was dissolved in 246 kg WFI. The Carfilzomib suspension was then prepared using 2.0 kg of CFZ-API. Mixing was performed using an impeller mixer to maintain suspension of the CFZ-API solids and dissolve the SBECD. In the same vessel, a probe style rotor-stator high shear mixer (homogenizer) was used as well as the low shear impeller. The high shear mixer was operated for approximately 1 hour yielding an even suspension and reduction of particle size for any larger primary particles or agglomerated API. After a suspension was achieved, 1.96 kg of citric acid was added as a 16% aqueous solution. The pH of the solution was then lowered inducing partial solubilization of the CFZ-API followed by and complexation due to the presence of SBECD. Mixing was continued for a further 24 hours with both the impeller and the high shear mixer and a dissolved concentration of CFZ-API of greater than 5.1 mg/mL was achieved. […]

Data set [2] in a line: Chlorohydrin degradation product (CDP) formation in lyophilized carfilzomib/SBECD product by HPLC: pH, water and sodium chloride varied (Example 2). The procedure: A multivariate statistical design of experiments was conducted to assess factors controlling the level of chlorohydrin degradation product as a function of processing parameters and storage time over six months. The complexation was performed in the proportion and parameters given in Example 1, with the following modifications: (i) the complexation process was performed at 2 L batch size; (ii) the final pH of solution before vial filling was varied for purposes of the experiment from 3.0, to 4.0; (iii) sodium chloride was spiked into SBECD in some experiments to create a high sodium chloride condition; (iv) water content of the lyophilized final product in stoppered vials was produced at high and low sodium chloride conditions via early termination and stoppering of vials to create a higher residual water content condition.
The solution of complexed carfilzomib for injection bulk solution pre-lyophilization included aqueous 5 mg/mL carfilzomib, 250 mg/mL Captisol® (SBECD) and 4.86 mg/mL citric acid, pH adjusted with aqueous sodium hydroxide. Compounding of the bulk solutions for lyophilization followed the procedure detailed in Example 1 with the following manipulations to create solutions with different specific attributes: • 1. pH was adjusted to 3.0 and 4.0 • 2. Sodium chloride was spiked into the Captisol® to create a “High Chloride” condition Captisol® manufactured by Cydex, a subsidiary of Ligand, has a standard product analysis range for sodium chloride from 0.05% to 0.2% (w/v). […] 400 g of this Captisol® was required per batch for the process to be performed at 2 L scale batches of complexation processing (in same proportions and general parameters per Example 1). To create the “high chloride” condition, 0.6 g of NaCl was added to 399.4 g of Captisol® which thus mimicked what a batch containing 0.2% chloride Captisol® would be comprised of.
In order to generate two (2) moisture content conditions in the final lyophilized vials, two (2) sets of 61.8 mg/vial (of CFZ-API) samples were lyophilized. The first cycle generated the “dry” sample set of vials containing approximately 0.6% residual water per Example 1 lyophilization parameters. For the second sample set, lyophilization was terminated and vials stoppered earlier in the secondary drying phase to generate the “wet” condition vials, with residual moisture approximately 2.4% water per vial initially.
The bulk solution of complexed carfilzomib was analyzed during manufacture by High Performance Liquid Chromatography (HPLC) to accurately quantify the concentration of dissolved and complexed carfilzomib drug substance. Subsequently, additional water was added to accurately dilute the bulk complexed solution. After this dilution step, HPLC was used again to ensure a target concentration of 5.0 mg/mL was achieved. Samples of the three (3) final bulk solutions were analyzed for potency and purity confirmation testing by HPLC. […] Karl Fischer Coulometry method was used for the water content determination in the lyophilized drug product.

The nature of data set [3]: Compounding study: dissolved carfilzomib versus time in 25% (w/v) SBE-β-CD (Example 5). The following applies: CFZ-API suspension in 25% (w/v) SBE-β-CD solution, aqueous with cosolvent or surfactant or cyclodextrin, thermodynamic from solid, read-out: solubilized concentration during compounding. Here is the method: SBE-β-CD was dissolved in WFI to achieve 25% (w/v) solution. A suspension of CFZ-API in the SBE-β-CD solution was prepared by homogenization per the solubility study
API solids were added in all experiments to theoretically yield a ˜6 mg/mL final solution to mimic the commercial process
After homogenization, pH was lowered using citric acids to affect solubilization, while continuing mixing up 24 hours. Then, all preparations were adjusted to pH 3.5. Dissolved concentration as a function of time was measured by sampling, filtration, then HPLC analysis to monitor the kinetics of complexation in the slurry based process.

As for `CC(C)C[C@H](NC(=O)[C@H](CCc1ccccc1)NC(=O)CN1CCOCC1)C(=O)N[C@@H](Cc1ccccc1)C(=O)N[C@@H](CC(C)C)C(=O)[C@@]1(C)CO1` [carfilzomib], in data set [1], the “dissolved concentration of CFZ-API” value is “greater than 5.1 mg/mL”. Moreover, the “% Area of CDP after 6 months (HPLC data)” value in data set [2] (5° C., pH 3.00, water 0.7%, sodium chloride 0.05%) was 0.00 % Area; in data set [2] (5° C., pH 3.00, water 0.7%, sodium chloride 0.2%), 0.13 % Area; in data set [2] (5° C., pH 3.00, water 2%, sodium chloride 0.05%) it was 0.02 % Area; in data set [2] (5° C., pH 3.00, water 2%, sodium chloride 0.2%), 0.28 % Area; in data set [2] (5° C., pH 4.00, water 0.7%, sodium chloride 0.05%) it was 0.00 % Area; in data set [2] (5° C., pH 4.00, water 0.7%, sodium chloride 0.2%), 0.08 % Area. The “% Area of CDP after 6 months (HPLC data)” value worked out at 0.02 % Area in data set [2] (5° C., pH 4.00, water 2%, sodium chloride 0.05%); 0.18 % Area in data set [2] (5° C., pH 4.00, water 2%, sodium chloride 0.2%); 0.14 % Area in data set [2] (25° C., pH 3.00, water 0.7%, sodium chloride 0.05%); 0.70 % Area in data set [2] (25° C., pH 3.00, water 0.7%, sodium chloride 0.2%); 0.55 % Area in data set [2] (25° C., pH 3.00, water 2%, sodium chloride 0.05%); 0.09 % Area in data set [2] (25° C., pH 4.00, water 0.7%, sodium chloride 0.05%). Moreover, the “% Area of CDP after 6 months (HPLC data)” value came out at 0.36 % Area in data set [2] (25° C., pH 4.00, water 0.7%, sodium chloride 0.2%) and 0.35 % Area in data set [2] (25° C., pH 4.00, water 2%, sodium chloride 0.05%). In addition, in data set [3] (first 2 hours), the solubility at 2 h stood at 4500 µg/mL (≈ 6.25 mM). Besides, the solubility in data set [3] (slow equilibration phase, in >20 hours) stood at 5500 µg/mL (≈ 7.64 mM).
